The record followed here is patent US9340513B2, “Propenoate derivatives of betulin” (GlaxoSmithKline LLC, priority 2011, dated 2016).

Structures are written as SMILES.

This experiment deals with HIV-1 (strain IIIB). The experiment in a line: MT4 Cell Antiviral Assay. The class given is cell-based. The conditions noted are these: Human immunodeficiency virus 1, 120 h; HIV-1 strain IIIB in MT4 cells, 5 days, Cell Titer-Glo; 50% decrease in HIV-induced cytopathic effect. As to the method: Antiviral HIV activity and compound-induced cytotoxicity were measured in parallel based on a modified protocol of the propidium iodide based procedure in the human T-cell lymphotropic virus transformed cell line MT4. Aliquots of the test compounds were serially diluted in DMSO plated in 96-well plates. Exponentially growing MT4 cells were harvested and pelleted. Cell pellets were resuspended in fresh medium (RPMI 1640, 10% FCS, and gentamycin. Cell aliquots were infected by the addition of HIV-1 (strain IIIB) diluted to give a viral multiplicity of infection of 300×TCID50/million cells. A similar cell aliquot was diluted with medium to provide a mock-infected control. Cell infection was allowed to proceed for 1 hr at 37° C. in a tissue culture incubator with humidified 5% CO2 atmosphere. After the 1 hr incubation the virus/cell suspensions were diluted with fresh medium, and added to each well of the plate containing pre-diluted compound. Plates were then placed in a tissue culture incubator with humidified 5% CO2 for 5 days. […] The plates were analyzed in an automated plate reader for luminescence.assay. The control and standard used was efavirinz tested over a concentration range of 0.001 to 1 μM in every assay. The expected range of IC50 values for efavirinz is 0.1 to 1 nM.
The antiviral effect of a test compound is reported as an IC50, i.e. the inhibitory concentration that would produce a 50% decrease in the HIV-induced cytopathic effect. This effect is measured by the amount of test compound required to restore 50% of the cell growth of HIV-infected MT4 cells, compared to uninfected MT4 cell controls. IC50 was calculated by RoboSage, Automated Curve Fitting Program.
For each assay plate, the results (of wells containing uninfected cells or infected cells with no compound were averaged, respectively. For measurements of compound-induced cytotoxicty, results from wells containing various compound concentrations and uninfected cells were compared to the average of uninfected cells without compound treatment. Percent of cells remaining is determined by the following formula: Percent of cells remaining=(compound-treated uninfected cells/untreated uninfected cells)×100.
A level of percent of cells remaining of 79% or less indicates a significant level of direct compound-induced cytotoxicity for the compound at that concentration. When this condition occurs the results from the compound-treated infected wells at this concentration are not included in the calculation of IC50.
For measurements of compound antiviral activity, results from wells containing various compound concentrations and infected cells are compared to the average of uninfected and infected cells without compound treatment. Percent inhibition of virus is determined by the following formula: Percent inhibition of virus=(1−((ave. untreated uninfected cells−treated infected cells)/(ave. untreated uninfected cells−ave. untreated infected cells)))×100
For orientation: In ATP-based viability assays light output follows the ATP content of the culture.
Usually IC50 stands for the concentration that inhibits the measured activity by half. A higher IC50 goes with weaker potency. Consider `CC(C)C1=C2[C@H]3CC[C@@H]4[C@@]5(C)CC[C@H](OC(=O)CC(C)(C)C(=O)O)C(C)(C)[C@@H]5CC[C@@]4(C)[C@]3(C)CC[C@@]2(/C=C/C(=O)NC2(c3ccccn3)CC2)CC1=O` [Example 12, 4-(((3aS,5aR,5bR,7aR,9S,11aR,11bR,13aS)-1-Isopropyl-5a,5b,8,8,11a-pentamethyl-2-oxo-3a-((E)-3-oxo-3-((1-(pyridin-2-yl)cyclopropyl)amino)prop-1-en-1-yl)-3,3a,4,5,5a,5b,6,7,7a,8,9,10,11,11a,11b,12,13,13a-octadecahydro-2H-cyclopenta[a]chrysen-9-yl)oxy)-2,2-dimethyl-4-oxobutanoic acid], for which the IC50 is < 10 nM.

With `CC(C)C1=C2[C@H]3CC[C@@H]4[C@@]5(C)CC[C@H](OC(=O)CC(C)(C)C(=O)O)C(C)(C)[C@@H]5CC[C@@]4(C)[C@]3(C)CC[C@@]2(/C=C/C(=O)NCCO)CC1=O` [Example 32, 4-(((3aS,5aR,5bR,7aR,9S,11aR,11bR,13aS)-3a-((E)-3-((2-Hydroxyethyl)amino)-3-oxoprop-1-en-1-yl)-1-isopropyl-5a,5b,8,8,11a-pentamethyl-2-oxo-3,3a,4,5,5a,5b,6,7,7a,8,9,10,11,11a,11b,12,13,13a-octadecahydro-2H-cyclopenta[a]chrysen-9-yl)oxy)-2,2-dimethyl-4-oxobutanoic acid], the IC50 was in the range of 10 to 250 nM.

`CC(C)C1=C2[C@H]3CC[C@@H]4[C@@]5(C)CC[C@H](OC(=O)CC(C)(C)C(=O)O)C(C)(C)[C@@H]5CC[C@@]4(C)[C@]3(C)CC[C@@]2(/C=C/C(=O)Nc2ccc(Cl)cn2)CC1=O` [Example 18, 4-(((3aS,5aR,5bR,7aR,9S,11aR,11bR,13aS)-3a-((E)-3-((5-Chloropyridin-2-yl)amino)-3-oxoprop-1-en-1-yl)-1-isopropyl-5a,5b,8,8,11a-pentamethyl-2-oxo-3,3a,4,5,5a,5b,6,7,7a,8,9,10,11,11a,11b,12,13,13a-octadecahydro-2H-cyclopenta[a]chrysen-9-yl)oxy)-2,2-dimethyl-4-oxobutanoic acid] returned a half-maximal inhibitory concentration (IC50) of 10 to 250 nM.

As for `CC(C)C1=C2[C@H]3CC[C@@H]4[C@@]5(C)CC[C@H](OC(=O)CC(C)(C)C(=O)O)C(C)(C)[C@@H]5CC[C@@]4(C)[C@]3(C)CC[C@@]2(/C=C/C(=O)NC2(c3ccc(Cl)cn3)CC2)CC1=O` [Example 7, 4-(((3aS,5aR,5bR,7aR,9S,11aR,11bR,13aS)-3a-((E)-3-((1-(5-Chloropyridin-2-yl)cyclopropyl)amino)-3-oxoprop-1-en-1-yl)-1-isopropyl-5a,5b,8,8,11a-pentamethyl-2-oxo-3,3a,4,5,5a,5b,6,7,7a,8,9,10,11,11a,11b,12,13,13a-octadecahydro-2H-cyclopenta[a]chrysen-9-yl)oxy)-2,2-dimethyl-4-oxobutanoic acid], the IC50 was < 10 nM.

`C/C(=C\[C@@]12CC[C@]3(C)[C@H](CC[C@@H]4[C@@]5(C)CC[C@H](OC(=O)CC(C)(C)C(=O)O)C(C)(C)[C@@H]5CC[C@]43C)C1=C(C(C)C)C(=O)C2)C(=O)NC1(c2ccc(Cl)cc2)CC1` [Example 27, 4-(((3aS,5aR,5bR,7aR,9S,11aR,11bR,13aS)-3a-((E)-3-((1-(4-Chlorophenyl)cyclopropyl)amino)-2-methyl-3-oxoprop-1-en-1-yl)-1-isopropyl-5a,5b,8,8,11a-pentamethyl-2-oxo-3,3a,4,5,5a,5b,6,7,7a,8,9,10,11,11a,11b,12,13,13a-octadecahydro-2H-cyclopenta[a]chrysen-9-yl)oxy)-2,2-dimethyl-4-oxobutanoic acid]: the IC50 is < 10 nM.

With `CC(C)C1=C2[C@H]3CC[C@@H]4[C@@]5(C)CC[C@H](OC(=O)CC(C)(C)C(=O)O)C(C)(C)[C@@H]5CC[C@@]4(C)[C@]3(C)CC[C@@]2(/C=C/C(=O)NC2(c3ccc(Cl)cc3)CC2)CC1=O` [Example 1, 4-(((3aS,5aR,5bR,7aR,9S,11aR,11bR,13aS)-3a-((E)-3-((1-(4-Chlorophenyl)cyclopropyl)amino)-3-oxoprop-1-en-1-yl)-1-isopropyl-5a,5b,8,8,11a-pentamethyl-2-oxo-3,3a,4,5,5a,5b,6,7,7a,8,9,10,11,11a,11b,12,13,13a-octadecahydro-2H-cyclopenta[a]chrysen-9-yl)oxy)-2,2-dimethyl-4-oxobutanoic acid], the IC50 is < 10 nM.

For `CC(C)C1=C2[C@H]3CC[C@@H]4[C@@]5(C)CC[C@H](OC(=O)CC(C)(C)C(=O)O)C(C)(C)[C@@H]5CC[C@@]4(C)[C@]3(C)CC[C@@]2(/C=C/C(=O)N[C@@H](C)c2cccc(Cl)c2)CC1` [Example 34, 4-(((3aR,5aR,5bR,7aR,9S,11aR,11bR,13aS)-3a-((E)-3-(((S)-1-(3-Chlorophenyl)ethyl)amino)-3-oxoprop-1-en-1-yl)-1-isopropyl-5a,5b,8,8,11a-pentamethyl-3,3a,4,5,5a,5b,6,7,7a,8,9,10,11,11a,11b,12,13,13a-octadecahydro-2H-cyclopenta[a]chrysen-9-yl)oxy)-2,2-dimethyl-4-oxobutanoic acid], the IC50 lay in the range of 10 to 250 nM.

Regarding `CC(C)C1=C2[C@H]3CC[C@@H]4[C@@]5(C)CC[C@H](OC(=O)CC(C)(C)C(=O)O)C(C)(C)[C@@H]5CC[C@@]4(C)[C@]3(C)CC[C@@]2(/C=C/C(=O)N[C@H](C)c2ccc(Cl)cc2)CC1=O` [Example 4, 4-(((3aS,5aR,5bR,7aR,9S,11aR,11bR,13aS)-3a-((E)-3-(((R)-1-(4-Chlorophenyl)ethyl)amino)-3-oxoprop-1-en-1-yl)-1-isopropyl-5a,5b,8,8,11a-pentamethyl-2-oxo-3,3a,4,5,5a,5b,6,7,7a,8,9,10,11,11a,11b,12,13,13a-octadecahydro-2H-cyclopenta[a]chrysen-9-yl)oxy)-2,2-dimethyl-4-oxobutanoic acid], the IC50 lay within 10 to 250 nM.

In turn, `CC(C)C1=C2[C@H]3CC[C@@H]4[C@@]5(C)CC[C@H](OC(=O)CC(C)(C)C(=O)O)C(C)(C)[C@@H]5CC[C@@]4(C)[C@]3(C)CC[C@@]2(/C=C/C(=O)NC2(c3ncccn3)CC2)CC1=O` [Example 13, 4-(((3aS,5aR,5bR,7aR,9S,11aR,11bR,13aS)-1-isopropyl-5a,5b,8,8,11a-pentamethyl-2-oxo-3a-((E)-3-oxo-3-((1-(pyrimidin-2-yl)cyclopropyl)amino)prop-1-en-1-yl)-3,3a,4,5,5a,5b,6,7,7a,8,9,10,11,11a,11b,12,13,13a-octadecahydro-2H-cyclopenta[a]chrysen-9-yl)oxy)-2,2-dimethyl-4-oxobutanoic acid] registered an IC50 of 10 to 250 nM.

As for `CC(C)C1=C2[C@H]3CC[C@@H]4[C@@]5(C)CC[C@H](OC(=O)CC(C)(C)C(=O)O)C(C)(C)[C@@H]5CC[C@@]4(C)[C@]3(C)CC[C@@]2(/C=C/C(=O)N[C@@H](C)c2ccncn2)CC1=O` [Example 8, 4-(((3aS,5aR,5bR,7aR,9S,11aR,11bR,13aS)-1-Isopropyl-5a,5b,8,8,11a-pentamethyl-2-oxo-3a-((E)-3-oxo-3-(((S)-1-(pyrimidin-4-yl)ethyl)amino)prop-1-en-1-yl)-3,3a,4,5,5a,5b,6,7,7a,8,9,10,11,11a,11b,12,13,13a-octadecahydro-2H-cyclopenta[a]chrysen-9-yl)oxy)-2,2-dimethyl-4-oxobutanoic acid], the IC50 was 10 to 250 nM.

Compound `CC(C)C1=C2[C@H]3CC[C@@H]4[C@@]5(C)CC[C@H](OC(=O)CC(C)(C)C(=O)O)C(C)(C)[C@@H]5CC[C@@]4(C)[C@]3(C)CC[C@@]2(/C=C/C(=O)NC2CCCCC2)CC1=O` [Example 30, 4-(((3aS,5aR,5bR,7aR,9S,11aR,11bR,13aS)-3a-((E)-3-(Cyclohexylamino)-3-oxoprop-1-en-1-yl)-1-isopropyl-5a,5b,8,8,11a-pentamethyl-2-oxo-3,3a,4,5,5a,5b,6,7,7a,8,9,10,11,11a,11b,12,13,13a-octadecahydro-2H-cyclopenta[a]chrysen-9-yl)oxy)-2,2-dimethyl-4-oxobutanoic acid] had an IC50 of 10 to 250 nM.

For `CC(C)C1=C2[C@H]3CC[C@@H]4[C@@]5(C)CC[C@H](OC(=O)CC(C)(C)C(=O)O)C(C)(C)[C@@H]5CC[C@@]4(C)[C@]3(C)CC[C@@]2(/C=C/C(=O)NC2(c3ccccc3Cl)CC2)CC1=O` [Example 20, 4-(((3aS,5aR,5bR,7aR,9S,11aR,11bR,13aS)-3a-((E)-3-((1-(2-Chlorophenyl)cyclopropyl)amino)-3-oxoprop-1-en-1-yl)-1-isopropyl-5a,5b,8,8,11a-pentamethyl-2-oxo-3,3a,4,5,5a,5b,6,7,7a,8,9,10,11,11a,11b,12,13,13a-octadecahydro-2H-cyclopenta[a]chrysen-9-yl)oxy)-2,2-dimethyl-4-oxobutanoic acid], the IC50 lay within 10 to 250 nM.
